Test results as given in PubChem BioAssay (NCI).
Where “and” joins values, the source holds several entries; their conditions need not be identical. Equal entries are not always repeated.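 Protocol summary: plate cells (96-well), add compound at 5 concentrations, incubate 48 h, interpolate endpoints linearly. Here, GI50 denotes the concentration required for 50% inhibition of growth. TGI: total growth inhibition.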

Legend:
Assay in all cases: growth of human tumour cells (NCI), 48 h
SN12C renal = tested on: SN12C renal
DMS 114 small cell lung = tested on: DMS 114 small cell lung
TK-10 renal = tested on: TK-10 renal
SK-OV-3 ovarian = tested on: SK-OV-3 ovarian
OVCAR-5 ovarian = tested on: OVCAR-5 ovarian
KM12 colon = tested on: KM12 colon
K-562 leukemia = tested on: K-562 leukemia
KM20L2 colon = tested on: KM20L2 colon
OVCAR-4 ovarian = tested on: OVCAR-4 ovarian
SF-268 CNS = tested on: SF-268 CNS
DU-145 prostate = tested on: DU-145 prostate

O=[N+]([O-])c1ccc(C[P+]2(c3ccccc3)CCCCC2)cc1
TGI (SN12C renal): > 100 µM | TGI (DMS 114 small cell lung): > 100 µM | TGI (TK-10 renal): > 100 µM | TGI (SK-OV-3 ovarian): > 100 µM | TGI (OVCAR-5 ovarian): > 100 µM | TGI (KM12 colon): > 100 µM | TGI (K-562 leukemia): > 100 µM | TGI (KM20L2 colon): > 100 µM

COC(=O)CC(=O)OSc1ccccc1
TGI (SN12C renal): 27.1 µM | TGI (DMS 114 small cell lung): 25.6 µM | TGI (OVCAR-4 ovarian): > 100 µM | TGI (TK-10 renal): > 100 µM | TGI (SK-OV-3 ovarian): 46 µM | TGI (OVCAR-5 ovarian): > 100 µM | TGI (KM12 colon): > 100 µM | TGI (K-562 leukemia): > 100 µM | TGI (KM20L2 colon): 42.2 µM

CN(C)c1nc(Oc2nc(N(C)C)nc(N(C)C)n2)nc(N(C)C)n1
TGI (SN12C renal): > 100 µM | TGI (SF-268 CNS): > 100 µM | TGI (DMS 114 small cell lung): > 100 µM | TGI (OVCAR-4 ovarian): > 100 µM | TGI (TK-10 renal): > 100 µM | TGI (SK-OV-3 ovarian): > 100 µM | TGI (OVCAR-5 ovarian): > 100 µM | TGI (KM12 colon): > 100 µM | TGI (K-562 leukemia): > 100 µM | TGI (KM20L2 colon): > 100 µM

COc1cc2ccc3c4cc(OC)c(OC)cc4c[n+](C)c3c2cc1O
TGI (SN12C renal): 43 µM | TGI (SF-268 CNS): 7.23 µM | TGI (DMS 114 small cell lung): > 82.9 µM | TGI (OVCAR-4 ovarian): > 100 µM | TGI (TK-10 renal): > 100 µM | TGI (SK-OV-3 ovarian): > 100 µM | TGI (OVCAR-5 ovarian): > 100 µM | TGI (KM12 colon): > 100 µM | TGI (K-562 leukemia): > 100 µM | TGI (KM20L2 colon): > 100 µM

CSCC[C@@H](NC(=O)[C@H](CC(C)C)NC(=O)C(Cc1cnc[nH]1)NC(=O)CNC(=O)[C@@H](NC(=O)[C@H](C)NC(=O)[C@H](Cc1c[nH]c2ccccc12)NC(=O)[C@H](CCC(N)=O)NC(=O)[C@@H](N)CC(N)=O)C(C)C)C(N)=O (stereo partly specified)
TGI (SN12C renal): > 100 µM | TGI (SF-268 CNS): > 100 µM | TGI (DMS 114 small cell lung): > 100 µM | TGI (OVCAR-4 ovarian): > 100 µM | TGI (SK-OV-3 ovarian): > 100 µM | TGI (OVCAR-5 ovarian): > 100 µM | TGI (KM12 colon): > 100 µM | TGI (K-562 leukemia): > 100 µM | TGI (KM20L2 colon): > 100 µM

CN(C)CCn1c(=O)c2ccc(NCCCN(C)CCCNc3ccc4c(=O)n(CCN(C)C)c(=O)n5c6ccc(O)cc6c(=O)c3c45)c3c(=O)c4cc(O)ccc4n(c1=O)c23
TGI (SN12C renal): 0.553 µM | TGI (DU-145 prostate): 0.655 µM | TGI (SF-268 CNS): 1.04 µM | TGI (OVCAR-4 ovarian): 0.177 µM | TGI (TK-10 renal): 1.63 µM | TGI (SK-OV-3 ovarian): 2.4 µM | TGI (OVCAR-5 ovarian): 1.15 µM | TGI (KM12 colon): 0.553 µM | TGI (K-562 leukemia): 0.255 µM

CCOC(=O)c1c(N2CCCC2)[nH]c(=O)c(C(c2ccc(OC)cc2)c2c(O)c(C(=O)OCC)c(N3CCCC3)[nH]c2=O)c1O
TGI (SN12C renal): > 100 µM | TGI (DU-145 prostate): > 100 µM | TGI (SF-268 CNS): > 100 µM | TGI (OVCAR-4 ovarian): > 100 µM | TGI (TK-10 renal): > 100 µM | TGI (SK-OV-3 ovarian): > 100 µM | TGI (OVCAR-5 ovarian): > 100 µM | TGI (KM12 colon): > 100 µM | TGI (K-562 leukemia): > 100 µM

NC1=CC(=O)c2c(O)ccc(O)c2C1=O
TGI (SN12C renal): 31.5 µM | TGI (DU-145 prostate): 32.1 µM | TGI (SF-268 CNS): > 70.1 µM | TGI (OVCAR-4 ovarian): 23.1 µM | TGI (TK-10 renal): > 84.8 µM | TGI (SK-OV-3 ovarian): > 94.5 µM | TGI (OVCAR-5 ovarian): 35.3 µM | TGI (KM12 colon): > 78.7 µM | TGI (K-562 leukemia): > 50.5 µM

Cc1nnc2n(c1=O)CCCN2C
TGI (SN12C renal): > 100 µM | TGI (DU-145 prostate): > 100 µM | TGI (SF-268 CNS): > 100 µM | TGI (OVCAR-4 ovarian): > 100 µM | TGI (TK-10 renal): > 100 µM | TGI (SK-OV-3 ovarian): > 100 µM | TGI (OVCAR-5 ovarian): > 100 µM | TGI (KM12 colon): > 100 µM | TGI (K-562 leukemia): > 100 µM

COC(=O)/C=C(/C=C1/C(C#N)=C(N)N(c2ccc(Cl)cc2)C1(C)/C(=C\C(=O)OC)C(=O)OC)C(=O)OC (stereo unspecified)
TGI (SN12C renal): 37.6 µM | TGI (DU-145 prostate): 89.2 µM | TGI (SF-268 CNS): 47.8 µM | TGI (OVCAR-4 ovarian): 60.5 µM | TGI (TK-10 renal): 81 µM | TGI (SK-OV-3 ovarian): > 100 µM | TGI (OVCAR-5 ovarian): 48.3 µM | TGI (KM12 colon): 37 µM | TGI (K-562 leukemia): > 100 µM

Cn1nc(-c2ccc(S(=O)(=O)/N=C(\NN)Nc3ccc(Cl)cc3)s2)cc1C(F)(F)F
TGI (SN12C renal): 31.4 µM | TGI (DU-145 prostate): 30.8 µM | TGI (SF-268 CNS): 32.6 µM | TGI (OVCAR-4 ovarian): 29.9 µM | TGI (TK-10 renal): 35.6 µM | TGI (SK-OV-3 ovarian): 41.9 µM | TGI (OVCAR-5 ovarian): 30.1 µM | TGI (KM12 colon): 31.5 µM | TGI (K-562 leukemia): 35.4 µM

Cc1c2ccnc(C(N)=O)c2c(C)c2c1[nH]c1ccccc12
GI50 (SN12C renal): 5.44 µM | TGI (SN12C renal): 27.9 µM and 31.6 µM | GI50 (SF-268 CNS): 6.19 µM | TGI (SF-268 CNS): 44.6 µM and 27.8 µM | GI50 (DMS 114 small cell lung): 6.72 µM | TGI (DMS 114 small cell lung): 47.3 µM and 47.6 µM | GI50 (OVCAR-4 ovarian): 7.56 µM | TGI (OVCAR-4 ovarian): 29.7 µM and 93.7 µM | TGI (TK-10 renal): 22.5 µM | GI50 (SK-OV-3 ovarian): 14.1 µM | TGI (SK-OV-3 ovarian): 23.9 µM and 34.3 µM | GI50 (OVCAR-5 ovarian): 6.41 µM | TGI (OVCAR-5 ovarian): 37.4 µM and 33.3 µM | GI50 (KM12 colon): 0.651 µM | TGI (KM12 colon): 47.2 µM and 56.1 µM | GI50 (K-562 leukemia): 3.9 µM | TGI (K-562 leukemia): 48.2 µM and > 100 µM | TGI (KM20L2 colon): 40.5 µM

CC(=O)NNc1nc(C)c(C(=O)NNC(=O)C(=O)Nc2ccc([N+](=O)[O-])cc2[N+](=O)[O-])s1
TGI (SN12C renal): > 100 µM | TGI (SF-268 CNS): > 100 µM | TGI (DMS 114 small cell lung): > 100 µM | TGI (OVCAR-4 ovarian): > 100 µM | TGI (TK-10 renal): > 100 µM | TGI (SK-OV-3 ovarian): > 100 µM | TGI (OVCAR-5 ovarian): > 100 µM | TGI (KM12 colon): > 100 µM | TGI (K-562 leukemia): > 100 µM | TGI (KM20L2 colon): > 100 µM

CCOC1C=CC(=O)C(CO)O1 (stereo unspecified)
TGI (SN12C renal): 26.8 µM | TGI (DU-145 prostate): 31.2 µM | TGI (SF-268 CNS): 32.5 µM | TGI (OVCAR-4 ovarian): 26.5 µM | TGI (TK-10 renal): 22.7 µM | TGI (SK-OV-3 ovarian): 33.3 µM | TGI (OVCAR-5 ovarian): 35.2 µM | TGI (KM12 colon): 31.5 µM | TGI (K-562 leukemia): 26 µM

OCc1ccc2c(c1)CC1(C2)Cc2cc3c(cc2C1O)CCC3 (stereo unspecified)
TGI (SN12C renal): 23.8 µM | TGI (DU-145 prostate): 67.1 µM | TGI (SF-268 CNS): > 72.7 µM | TGI (OVCAR-4 ovarian): 36.3 µM | TGI (TK-10 renal): 67.1 µM | TGI (SK-OV-3 ovarian): 46.6 µM | TGI (OVCAR-5 ovarian): 56.1 µM | TGI (KM12 colon): 16.5 µM | TGI (K-562 leukemia): > 37.6 µM
